Blank lines part the entries; values can stand above or below the molecule they belong to. No end group written: not given here. *: point of attachment. Palmitoyl = CCCCCCCCCCCCCCCC(=O)*
Legend:
Normal mice = assay: Intraperitoneal glucose tolerance with peptide in younger versus older normal mice; assay type: in vivo; conditions: 25 nmol/kg i.p. with glucose 18 mmol/kg, AUC 0-60 min
Method: Body weight and food intake were recorded over five days before commencement of metabolic tests. Intraperitoneal (i.p.) glucose tolerance (18 mmol/kg body weight) was assessed in non-fasted animals.

ob/ob mice [1] = assay: 24 hour plasma glucose and insulin profile after a single dose in non-fasted ob/ob mice; assay type: in vivo; conditions: single 12.5 nmol/kg i.p.
Description: Dose of 12.5 nmol kg^−1 was chosen to evaluate the longer-term duration of action of a single dose of native or fatty acid derivatised GIP in non-fasted ob/ob mice.

ob/ob mice [2] = assay: Acute glucose lowering and insulin release, peptide given i.p. with glucose to 18 hour fasted ob/ob mice; conditions: 25 nmol/kg i.p. with glucose 18 mmol/kg
BRIN-BD11 cells = assay: Insulin release from BRIN-BD11 cells, GIP alone and combined with antidiabetic drugs; assay type: cell-based; conditions: 5.6 mM glucose, 20 minutes; for insulin secretion from BRIN-BD11 cells, agent alone: GIP 10 nM, drugs 25-200 μM; for insulin secretion, combination of agent with GIP compared with either agent alone: 10 nM GIP plus drug
Method: Acute insulin-release studies were carried out using clonal pancreatic BRIN-BD11 cells, whose origin, characteristics and secretory responsiveness have been outlined in detail elsewhere (Irwin, N. et al., 2005, Biol. Chem. (In Press)). BRIN-BD11 cells were seeded into 24-multiwell plates at a density of 10^5 cells per well and allowed to attach overnight at 37° C.

dipeptidyl peptidase IV [3] = biological target: dipeptidyl peptidase IV (Sus scrofa, UniProt P22411); assay: DPP IV degradation, % intact peptide by HPLC; assay type: in vitro ADME, porcine; conditions: pig, purified porcine dipeptidyl peptidase IV (DPP IV), 37° C., pH 7.8
Method: (§1) HPLC peak area data were used to calculate the percentage intact peptide remaining at the various time points during the incubation.

[4] = biological target: purified porcine dipeptidyl peptidase IV (Sus scrofa, UniProt P22411); assay: DPP IV degradation, % intact peptide by HPLC; assay type: in vitro ADME; conditions: 37° C., pH 7.8
Method: as §1

ob/ob mice [5] = assay: Daily N-AcGIP(PEG) for 14 days in 12 weeks old ob/ob mice; assay type: in vivo
Method: FIG. 27 is a pair of line graphs showing the effects of daily N-AcGIP(PEG) administration on food intake and body weight. N-AcGIP(PEG) (25 nmoles/kg/day) or saline vehicle (control) were administered for the 14-day period. Values are mean±SEM for 8 mice.
FIG. 28 is a pair of line graphs showing changes of plasma glucose and insulin after daily treatment of ob/ob mice with N-AcGIP(PEG) (25 nmoles/kg/day) or saline vehicle (control) for 14 days. Values are mean±SEM for 8 mice.
FIG. 29 is a set of line graphs showing the effects of daily N-AcGIP(PEG) administration on glucose tolerance and plasma insulin response to glucose. Tests were conducted after 14 daily injections of either N-AcGIP(PEG) ([…]) or saline vehicle (control). Glucose (18 mmoles/kg) was administered by intraperitoneal injection. Plasma glucose and insulin AUC values for 0-60 min post injection are shown in the right panels. Values are mean±SEM for 8 mice. *p<0.05 compared to control.
FIG. 30 is a line graph and a bar graph showing the effects of daily N-AcGIP(PEG) administration on insulin sensitivity. Tests were conducted after 14 daily injections of either N-AcGIP(PEG) (25 nmoles/kg/day) or saline vehicle (control). Insulin (50 U/kg) was administered by intraperitoneal injection. Plasma glucose AUC values from baseline for 0-60 min post injection are shown in the right panels. Values are mean±SEM for 8 mice. *p<0.05 compared to control.

dipeptidyl peptidase IV [6] = assay: purified porcine dipeptidyl peptidase IV (5 mU) in 50 mM triethanolamine-HCl (pH 7.8); conditions: 37° C., up to 24 hours
[7] = system: dipeptidyl peptidase IV (DPP IV; EC 3.4.15.5); assay: in the circulation; conditions: cited from earlier work
[8] = biological target: purified porcine dipeptidyl peptidase IV (porcine, UniProt P22411 38-766, limits assumed); assay: cell-based or functional assay
[9] = after 14 days, glucose 18 mmol/kg i.p.

Chain of purified porcine dipeptidyl peptidase IV (porcine, UniProt P22411 38-766, limits assumed) (P22411 38-766 limits assumed): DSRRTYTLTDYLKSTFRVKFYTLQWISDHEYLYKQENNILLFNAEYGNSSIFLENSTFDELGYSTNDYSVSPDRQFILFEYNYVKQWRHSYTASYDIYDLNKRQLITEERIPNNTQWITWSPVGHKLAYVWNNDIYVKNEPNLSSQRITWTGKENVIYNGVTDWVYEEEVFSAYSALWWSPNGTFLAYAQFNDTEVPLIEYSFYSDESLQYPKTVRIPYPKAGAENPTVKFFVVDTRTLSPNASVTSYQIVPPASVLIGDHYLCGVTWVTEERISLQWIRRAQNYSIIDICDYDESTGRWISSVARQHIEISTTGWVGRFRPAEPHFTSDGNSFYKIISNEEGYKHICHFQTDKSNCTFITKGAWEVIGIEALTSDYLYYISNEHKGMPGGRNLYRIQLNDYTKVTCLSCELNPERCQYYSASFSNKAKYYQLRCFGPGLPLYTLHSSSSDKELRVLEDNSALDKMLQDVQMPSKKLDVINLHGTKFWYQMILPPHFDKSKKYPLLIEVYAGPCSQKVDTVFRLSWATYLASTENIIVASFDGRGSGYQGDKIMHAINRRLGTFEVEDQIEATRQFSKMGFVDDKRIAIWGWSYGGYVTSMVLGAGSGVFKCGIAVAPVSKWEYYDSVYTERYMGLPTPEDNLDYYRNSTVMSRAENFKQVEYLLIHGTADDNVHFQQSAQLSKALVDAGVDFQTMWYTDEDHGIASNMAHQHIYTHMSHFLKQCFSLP
Chain of dipeptidyl peptidase IV (Sus scrofa, UniProt P22411) (P22411 whole entry): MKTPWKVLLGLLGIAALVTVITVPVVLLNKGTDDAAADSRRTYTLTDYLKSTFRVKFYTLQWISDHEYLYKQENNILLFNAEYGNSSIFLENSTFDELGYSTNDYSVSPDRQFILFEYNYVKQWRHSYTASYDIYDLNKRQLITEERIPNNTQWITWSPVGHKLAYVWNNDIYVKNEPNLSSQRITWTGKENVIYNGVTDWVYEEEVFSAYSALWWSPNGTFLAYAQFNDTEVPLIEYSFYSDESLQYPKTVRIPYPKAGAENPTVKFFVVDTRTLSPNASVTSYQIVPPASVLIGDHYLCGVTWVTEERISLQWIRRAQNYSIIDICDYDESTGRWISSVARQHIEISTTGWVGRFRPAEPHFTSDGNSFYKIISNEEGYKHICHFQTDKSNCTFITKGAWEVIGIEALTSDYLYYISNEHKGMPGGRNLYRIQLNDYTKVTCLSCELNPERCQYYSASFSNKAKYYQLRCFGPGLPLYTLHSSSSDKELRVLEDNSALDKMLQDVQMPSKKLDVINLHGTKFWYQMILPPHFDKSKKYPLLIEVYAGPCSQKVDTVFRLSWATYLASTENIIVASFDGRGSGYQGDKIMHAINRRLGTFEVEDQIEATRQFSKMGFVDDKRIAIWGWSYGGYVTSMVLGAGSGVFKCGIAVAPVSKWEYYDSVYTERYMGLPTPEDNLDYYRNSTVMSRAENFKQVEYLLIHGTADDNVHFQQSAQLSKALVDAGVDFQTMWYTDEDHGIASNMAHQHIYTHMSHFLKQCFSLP
Chain of purified porcine dipeptidyl peptidase IV (Sus scrofa, UniProt P22411) (P22411 whole entry): as above

fragment found (dipeptidyl peptidase IV [6]): GIP(3-42), major, 2 hours
Molecule: yaegtfisdysiamdkihqqdfvnwllaqkgkkndwkhnitq
fragment found [7]: GIP(3-42), major

% Intact peptide remaining after time (h): 0 [8]: 100%
% Intact peptide remaining after time (h): 2 [8]: 100%
% Intact peptide remaining after time (h): 8 [8]: 100%
% Intact peptide remaining after time (h): 24 [8]: 100%
Molecule: YAEGTFISDYSIAMDKIHQQDFVNWLLAQKGKKNDWK(Palmitoyl)HNITQ [GIP(LysPAL^37)]

% Intact peptide remaining after time (h): 0 [8]: 100%
% Intact peptide remaining after time (h): 2 [8]: 100%
% Intact peptide remaining after time (h): 8 [8]: 100%
% Intact peptide remaining after time (h): 24 [8]: 100%
Molecule: YAEGTFISDYSIAMDKIHQQDFVNWLLAQKGKKNDWKHNITQ (C-16 palmitoyl group on the epsilon amino group of Lys 16) [GIP(LysPAL^16)]

The next lines start with the molecule.

Molecule: CC[C@H](C)[C@H](NC(=O)[C@H](CO)NC(=O)[C@H](Cc1ccc(O)cc1)NC(=O)[C@H](CC(=O)O)NC(=O)[C@H](CO)NC(=O)[C@@H](NC(=O)[C@H](Cc1ccccc1)NC(=O)[C@@H](NC(=O)CNC(=O)[C@H](CCC(=O)O)NC(=O)[C@H](C)NC(=O)[C@@H](N)Cc1ccc(O)cc1)[C@@H](C)O)[C@@H](C)CC)C(=O)N[C@@H](C)C(=O)N[C@@H](CCSC)C(=O)N[C@@H](CC(=O)O)C(=O)N[C@@H](CCCCN)C(=O)N[C@H](C(=O)N[C@@H](Cc1c[nH]cn1)C(=O)N[C@@H](CCC(N)=O)C(=O)N[C@@H](CCC(N)=O)C(=O)N[C@@H](CC(=O)O)C(=O)N[C@@H](Cc1ccccc1)C(=O)N[C@H](C(=O)N[C@@H](CC(N)=O)C(=O)N[C@@H](Cc1c[nH]c2ccccc12)C(=O)N[C@@H](CC(C)C)C(=O)N[C@@H](CC(C)C)C(=O)N[C@@H](C)C(=O)N[C@@H](CCC(N)=O)C(=O)N[C@@H](CCCCN)C(=O)NCC(=O)N[C@@H](CCCCN)C(=O)N[C@@H](CCCCN)C(=O)N[C@@H](CC(N)=O)C(=O)N[C@@H](CC(=O)O)C(=O)N[C@@H](Cc1c[nH]c2ccccc12)C(=O)N[C@@H](CCCCN)C(=O)N[C@@H](Cc1c[nH]cn1)C(=O)N[C@@H](CC(N)=O)C(=O)N[C@H](C(=O)N[C@H](C(=O)N[C@@H](CCC(N)=O)C(=O)O)[C@@H](C)O)[C@@H](C)CC)C(C)C)[C@@H](C)CC [Native GIP, reference compound]
overall plasma glucose response in older mice compared to younger controls (Normal mice): significantly elevated
overall plasma insulin response in older mice compared to younger controls (Normal mice): significantly less
effect on plasma glucose over 24 hours (ob/ob mice [1]): transient, but not significant effect
insulin release compared to glucose alone (ob/ob mice [2]): significantly greater
plasma glucose concentrations and AUC (0-60 min) compared to glucose alone (ob/ob mice [2]): neither this nor the overall AUC glucose excursion achieved significance
insulin secretion from BRIN-BD11 cells, agent alone (BRIN-BD11 cells): stimulated insulin secretion
remaining at 2 h, 2 mM (dipeptidyl peptidase IV [3]; 2 h incubation with DPP IV (5 mU), read-out: % Intact peptide remaining after time (h) 2): 52 ± 3%
remaining at 8 h, 2 mM (dipeptidyl peptidase IV [3]; 8 h incubation with DPP IV (5 mU), read-out: % Intact peptide remaining after time (h) 8): 0%
remaining at 24 h, 2 mM (dipeptidyl peptidase IV [3]; 24 h incubation with DPP IV (5 mU), read-out: % Intact peptide remaining after time (h) 24): 0%
% Intact peptide remaining after time (h) 0 ([4]; 0 h incubation with DPP IV (5 mU)): 100%
% Intact peptide remaining after time (h) 2 ([4]; 2 h incubation with DPP IV (5 mU)): 52±3%
% Intact peptide remaining after time (h) 8 ([4]; 8 h incubation with DPP IV (5 mU)): completely degraded

Molecule: COc1ccc(Cl)cc1C(=O)NCCc1ccc(S(=O)(=O)NC(=O)NC2CCCCC2)cc1 [glibenclamide]
insulin secretion, combination of agent with GIP compared with either agent alone (BRIN-BD11 cells): significant potentiation
insulin secretion from BRIN-BD11 cells, agent alone (BRIN-BD11 cells): stimulated insulin secretion

Molecule: CC(C)[C@H]1CC[C@H](C(=O)N[C@H](Cc2ccccc2)C(=O)O)CC1 [nateglinide]
insulin secretion, combination of agent with GIP compared with either agent alone (BRIN-BD11 cells): significant potentiation
insulin secretion from BRIN-BD11 cells, agent alone (BRIN-BD11 cells): stimulated insulin secretion

Molecule: CCCCNC(=O)NS(=O)(=O)c1ccc(C)cc1 [tolbutamide]
insulin secretion, combination of agent with GIP compared with either agent alone (BRIN-BD11 cells): significant potentiation
insulin secretion from BRIN-BD11 cells, agent alone (BRIN-BD11 cells): stimulated insulin secretion

Molecule: N-AcGIP(PEG): GIP molecule in which PEG is attached to the C-terminus and the Acetyl group to the opposite end
circulating insulin (ob/ob mice [5]; 25 nmoles/kg/day, 14 days): without appreciable change
effect on body weight (ob/ob mice [5]; 25 nmoles/kg/day, 14 days): did not affect
effect on food intake (ob/ob mice [5]; 25 nmoles/kg/day, 14 days): did not affect
non-fasting glucose (ob/ob mice [5]; 25 nmoles/kg/day, 14 days): decreased
glucose tolerance after intraperitoneal glucose load (ob/ob mice [5]; [9]): improved glucose tolerance
overall glycaemic response after intraperitoneal glucose load (ob/ob mice [5]; [9]): reduced the overall glycaemic response
plasma insulin concentrations and insulin response to intraperitoneal glucose (ob/ob mice [5]; [9]): enhanced
plasma glucose after administration of insulin (insulin sensitivity) (ob/ob mice [5]; after 14 days, insulin 50 U/kg i.p.): lower plasma glucose concentrations

Molecule: YAEGTFISDYSIAMDKIHQQDFVNWLLAQKGKKNDWKHNITQ [native GIP (glucose-dependent insulinotropic polypeptide; gastric inhibitory polypeptide), GIP(1-42)]
% Intact peptide remaining after time (h): 0 [8]: 100%
% Intact peptide remaining after time (h): 2 [8]: 52%
% Intact peptide remaining after time (h): 8 [8]: 0%
% Intact peptide remaining after time (h): 24 [8]: 0%

Source: patent US20090286722A1 (priority 2005, published 2009)
